The values that follow come from US12031986B2, “Polypeptide for targeting recognition of immune cells and application thereof” (KEYANGLE LIFE TECHNOLOGY CO., LTD., priority 2019, dated 2024).

Entries after “also recorded” stand apart in the source; their conditions may differ. No end group written: not given here. code X = not defined here

Assay [1] concerns monocyte precursors from New Zealand White Rabbit bone marrow mesenchyme. Kind of assay: In vitro fluorescent labeling of primary monocyte precursors of New Zealand White Rabbit. The class given is cell-based. The note with it: cultured. From the text: With a similar process to Example 11, bone marrow monocyte precursors of New Zealand White Rabbit were taken and cultured, then labeled by using EK24 fluorescent probe and Nucblue. Then the cells were observed under a fluorescence microscope (20×, light source 10%, exposure 200 ms, gain 5).

Assay [2] relates to macrophages on mouse abdominal wall. Kind of assay: In vivo fluorescent labeling of macrophages on mouse abdominal wall. The settings on record: injected with FITC anti-mouse CD68 antibody; abdominal wall muscle removed. As for the experimental part:
Referring to Example 3, using the same drug injection process, inject EK24, and FITC anti-mouse CD68 antibody (Biolegend) which was diluted with PBS from 2 μL to 500 μL. Remove mouse abdominal wall muscle for Nucblue double-staining and then observing under a fluorescence microscope (20×, light source 50%, exposure 200 ms, gain 5).

The test system of assay [3] is mouse alveolar macrophages. Kind of assay: In vivo fluorescent labeling of mouse pulmonary macrophages after spraying through the trachea. The settings on record: sprayed into the lungs through the trachea; whole lungs observed. From the text: In yet another aspect of the present disclosure, it provides a method for convenient, oral and non-invasive in situ imaging or targeted drug administration for pulmonary immune cells. After spraying into the trachea of a mouse, the polypeptide or probe of the present disclosure can be diffused along the trachea in the living body, automatically target and aggregate in alveolar macrophages, and thus allow real-time and in situ imaging or targeted drug delivery to pulmonary and alveolar macrophages. The imaging may be maintained for more than 24 hours. The experiments of the present disclosure confirm that the probe described above can diffuse to lungs through mouth inhalation, and recognize macrophages therein, which is consistent with CD11c antibody recognizing alveolar macrophages.
Spray 100 μL of 50 μM EK24-drug into the lungs of 4- to 8-week-old mice through the trachea thereof, and after 18 hours, dilute 5 μL of Alexa Fluor®488 anti-mouse CD11c antibody (Biolegend) to 100 μL and then spray into the lung for 1.5 h. Dissect the mice, and take the whole lungs for observing under a fluorescence microscope (20×, light source 50%, exposure 200 ms, gain 5).

Assay [4] deals with cultured peritoneal macrophages and other cells released from enzyme-digested mesenterium. Kind of assay: Selective labeling of cultured peritoneal macrophages among other cells released from enzyme-digested mesenterium. Type of assay: cell-based, mouse. The note with it: peritoneal cells and mesenteries trypsin-digested, cultured 3 days. The protocol:
Take 5 to 8-week-old Kunming mice, inject intraperitoneally with 5 mL of serum-free DMEM incomplete medium. After 1 hour, sacrifice the mice by cervical vertebra dislocation. Make an incision on the skin of abdominal cavity, pierce the abdominal wall muscle using the syringe, and extract the fluid in the abdominal cavity of the mice. Wash twice with 1×PBS, collect peritoneal cells by centrifugation. Also take the mesenteries of the Kunming mice and purge twice with 1×PBS in centrifuge tubes. Incubate the obtained peritoneal cells and mesenteries in 0.25% trypsin solution and digest for 30 minutes. Enrich the cells by centrifugation, and then culture for 3 days in a 96-well plate using F12/DMEM culture solution containing 10% FBS and 1% streptomycin-penicillin. Referring to Example 5, label with the EK24 fluorescent probe and Nucblue. Then the cells were observed under a fluorescence microscope (20×, light source 10%, exposure 200 ms, gain 5).

In assay [5] the test system is mouse macrophage cell line RAW264.7. Kind of assay: In vitro fluorescence labeled staining of a mouse macrophage cell line. Type of assay: cell-based. The note with it: 10 μM, incubated 1 h. The protocol: Culture the mouse macrophage cell line RAW264.7 in a 96-well plate, wash the wells once with 1×PBS buffer or a serum-free DMEM incomplete medium, remove the washing liquid, add EK24 solution of 10 μM which had been diluted with 100 μL of serum-free DMEM incomplete medium, and incubate in a cell culture incubator for 1 h. After that, wash the wells twice with 1× PBS buffer or the serum-free DMEM incomplete medium. Then, add DMEM complete medium containing 10% FBS and 1% streptomycin-penicillin, and double-stain the cells using nuclear dye Nucblue and observe under EVOS® FL Auto fluorescence microscope (Life Technologies, light source 10%, exposure 200 ms, gain 5).

In assay [6] the test system is primary macrophages from rat peritoneal cavity. Kind of assay: In vitro fluorescent labeling of primary macrophages from rat peritoneal cavity. The class given is cell-based. The note with it: SD rats, cells cultured more than 2 days. The protocol:
With the same process as in Example 9, extract cells from the abdominal cavity of 5 to 8 weeks old SD rats using 20 mL serum-free DMEM incomplete medium and culture the cells in a 96-well plate. After culturing for more than 2 days until the cells attached to the bottom firmly, a well was selected and added with EK24 fluorescent probe for incubation. Then the cells were observed under a fluorescence microscope (20×, light source 10%, exposure 200 ms, gain 5).

Assay [7] relates to cultured macrophages isolated from mouse peritoneal cavity. Kind of assay: In vitro fluorescent labeling of cultured macrophages isolated from mouse peritoneal cavity. Type of assay: cell-based. The note with it: 10 μM EK24 premixed with F4/80 antibody, 1 h at 37 °C. As for the experimental part: Inject 5 mL of serum-free DMEM incomplete medium into the abdominal cavity of 5 to 8 weeks old mice, massage the abdominal cavity gently for 10 min, and sacrifice the mice by cervical vertebra dislocation. Extract the fluid from the abdominal cavity gently with a syringe, inject into a 5 mL centrifuge tube and centrifuge at 1000 rpm for 5 min, remove the supernatant, and resuspend the collected ex-vivo cells in DMEM/F12 medium containing 10% FBS, then add into a 96-well plate for culture. Generally, if cells are taken intraperitoneally for in vitro culture, macrophages would tend to adhere to the bottom of the well, and other cells would be washed off. The cells were cultured for more than 2 days until the cells attached to the bottom firmly. At this time, the cells remaining in the wells were basically macrophages. Select two wells, one as a control and the other as an experimental well. The cells of the control were nuclear stained with Nucblue. The experimental well was added with a premix of AlexaFluor®488 anti-mouse F4/80 antibody (Biolegend) and EK24 fluorescent probe, and then incubated for 1 h at 37° ° C. The premix contained 10 μM of EK24 solution and 2 μL of Alexa Fluor®488 anti-mouse F4/80 antibody diluted with 100 μL of serum-free DMEM incomplete medium. […] The cells were observed under a fluorescence microscope (20× objective lens, light source 10%, exposure 200 ms, gain 5).

The subject of assay [8] is mouse peritoneal macrophages. Kind of assay: In vivo fluorescent labeling of macrophages in a mouse abdominal cavity. The settings on record: probe injected into abdominal cavity, cells extracted after 4 hours, fluorescence microscope. As for the experimental part:
Dilute 300 μL of 50 μM AK9 fluorescent probe solution with serum-free DMEM incomplete medium to obtain 1 mL of solution, then inject into the abdominal cavities of 5-8 week old Kunming mice. After 4 hours, inject 5 mL of 1×PBS, and massage. After 10 minutes, sacrifice the mice by cervical vertebra dislocation. Cut the abdominal cavity skin of the mice, pierce the abdominal wall muscle by syringe, and extract the fluid in the abdominal cavity of the mice. Centrifuge the extracted peritoneal fluid at 1000 rpm for 5 min, wash twice with 1×PBS. Double-stain an appropriate number of cells with Alexa Fluor 488 anti-mouse F4/80 antibody (Biolegend). Add the stained cells to a 96-well plate and stain with a nuclear dye Nucblue (Invitrogen). Observe under EVOS FL Auto fluorescence microscope (Life Technologies, 20×, light source 50%, exposure 200 ms, gain 10) after the suspended cells were settled down at the bottom of the plate.
Table 1 lists probes, which contain the polypeptide fragments from the C-terminal fragments of Triokinases/FMN cyclases of different species and were prepared by a similar process as described in Examples 1 and 2, and in vivo imaging results of mouse peritoneal macrophages using these probes.

In assay [9] the test system is mouse peritoneal macrophages. Kind of assay: In vitro fluorescent labeling of mouse peritoneal macrophages at different incubation times. The class given is cell-based. The protocol:
Referring to Example 9, using the same treatment process, the macrophages from mouse abdominal cavity were obtained. After culturing for 6 days, the cultured peritoneal cells were labeled with KS24 fluorescent probes for different incubation times. Then the cells were observed under a fluorescence microscope (20×, light source 20%, exposure 200 ms, gain 5).
Nucblue (blue fluorescence) was further used for nuclear staining. In each of FIGS. 14A, 14B, 14C, and 14D, i) is an image labeled with the KS24 fluorescent probe (shown in red fluorescence in the original fluorescence color image), and ii) is an image obtained by nuclear staining with Nucblue (shown in blue fluorescence in the original fluorescence color image), and iii) is a merged image of i) and ii).

As to “EQPDPGAVAAAAILRAILEVLQS-Y (EQPDPGAVAAAAILRAILEVLQSY; also: reporter type not given here; listed as Homo sapiens) [EK24, Y = reporter or cysteine/lysine + reporter]”, the “labeling of New Zealand White Rabbit bone marrow monocyte precursors” value in assay [1] is listed as “capable of labeling”. Besides, in assay [2], the “labeling of macrophages on mouse abdominal wall” value was “can be labeled” and the “labeling of other cells of mouse abdominal wall” value is given as “cannot be labeled”. Also, the “recognition of mouse alveolar / pulmonary macrophages” value in assay [3] is on record as “recognize the same cells in mouse alveoli”. In assay [4], the “staining of macrophages in mixed culture” value was “only stains macrophages” and the “staining of non-macrophages in mixed culture” value is given as “not stain non-macrophages”. Further, the “fluorescent labeling of RAW264.7” value in assay [5] is “can be labeled”. The “labeling of in vitro cultured primary macrophages from rat peritoneal cavity” value in [6] is recorded as “can effectively label”. The “co-localization of probe label and F4/80 antibody label” value in [7] is given as “co-localized on the same cells”. Moreover, the “in vivo labeling / recognition of mouse peritoneal macrophages by the fluorescent probe” value (“in vivo labeling / recognition” for short) in assay [8] is listed as “can effectively recognize macrophages in vivo; also recorded: can be labeled”.

With “X-DQPDPGAVAAAAILRAILEVLQSQGA ({code X}-DQPDPGAVAAAAILRAILEVLQSQGA; reading uncertain; also: reporter type not given here, printed as X-DQPDPGAVAAAAILRAILEVLQSQGA; listed as Sus scrofa) [b-KA27, X = reporter or cysteine/lysine + reporter]”, the “in vivo labeling / recognition” value in [8] is given as “can effectively recognize macrophages in vivo; also recorded: can be labeled”.

With “X-DQPDPGAVAAAAILRTILEVLQSQGV ({code X}-DQPDPGAVAAAAILRTILEVLQSQGV; reading uncertain; also: reporter type not given here, printed as X-DQPDPGAVAAAAILRTILEVLQSQGV; listed as Canis lupus) [d-KV27, X = reporter or cysteine/lysine + reporter]”, the “in vivo labeling / recognition” value in assay [8] is “can effectively recognize macrophages in vivo; also recorded: can be labeled”.

Take “X-EQPDPGAVAAAAILRAILEVLQS ({code X}-EQPDPGAVAAAAILRAILEVLQS; reading uncertain; also: reporter type not given here, printed as X-EQPDPGAVAAAAILRAILEVLQS; listed as Homo sapiens) [KS24, X = reporter or cysteine/lysine + reporter at N-terminal]”: the “fluorescence detection with microscope” value in assay [9] (incubating only for 10 min) is recorded as “can be even detected”. For the same substance, the “labeled fluorescence of the cells versus incubation time” value in [9] (incubation 10, 20, 40 and 80 min, cells cultured 6 days) was “gradually becomes stronger with the incubation time”. Also, the “in vivo labeling / recognition” value in assay [8] was “can effectively recognize macrophages in vivo; also recorded: can be labeled”.

For the substance “X-EQPDPSAVAAAAILRAILEVLQG (not fully specified (N-terminus); printed as X-EQPDPSAVAAAAILRAILEVLQG; also: N-terminal reporter, not given here) [KESG24, X = reporter or cysteine/lysine + reporter]”, the “in vivo labeling / recognition” value in assay [8] is given as “can be labeled”.

As for “X-TKNMEAGAGRASYISSARLEQPDPGAVAAAAILRAILEVLQS (not fully specified (N-terminus); listed as Homo sapiens) [TS42]”, the “in vivo labeling / recognition” value in assay [8] is on record as “can effectively recognize macrophages in vivo; also recorded: can be labeled”.
